test: Binding affinity to Influenza A virus PA endonuclease I39T mutant assessed as dissociation constant by MST assay

**Q.** With `COc1cnccc1CCNC(=O)c1nc(-c2ccccc2C(F)(F)F)[nH]c(=O)c1O` as the molecule, how does the Kd read?
**A.** Its Kd is 32 nM.

**Q.** Which Kd does the source give for `O=C1c2c(O)c(=O)ccn2N([C@@H]2c3ccccc3SCc3c2ccc(F)c3F)C2COCCN12` (stereo partly drawn) here?
**A.** Its Kd is 9300 nM.

**Q.** With `Nc1ncnc2c1ncn2CCNC(=O)c1nc(-c2ccccc2C(F)(F)F)[nH]c(=O)c1O` as the molecule, how does the Kd read?
**A.** Its Kd is 16 nM.
